Data set [1] deals with 561 antibody. Nature of the data set: Chemical reagents as enhancers of peptide-dependant release of CD34+ cells from the 561 antibody (FACS assay). The data set is classed as cell-based. The procedure:
The ability of chemical reagents to enhance peptide-dependant release of captured CD34+ cells from the 561 antibody was examined. […] Previous studies indicated a requirement for low pH (about pH4) for effective cell release. Since long-term viability of the low pH-released cells was not known, conditions which could alter the pH to a more neutral value (about pH5-7) were desirable. Reagents which were known to affect electrostatic and hydrogen bonding interactions of proteins were tested in addition to excluded-volume polymers.
(In flow cytometry, cells or beads pass a laser one at a time.)

Data set [2] concerns 561 antibody. The data set can be described thus: KG1a or tHL60 cell-based FACS assay: release of prebound 561 antibody. Particulars: for functional release activity: crude peptide. The procedure:
Five peptides representing hexapeptides selected from biopannings were synthesized and tested for their ability to serve as release agents in the KG1a or tHL60 cell-based FACS assay.
HPLC-purified peptides 561C and D were tested in the cell-based KG1a FACS assay.
Functional release activity of purified 561D peptide at pH 4 and 6 was tested.
Functional release activity of purified 561C and 561D peptides at pH 4, 5, 6, 7, 8, and 9 was tested.
Functional release activity of crude 561A,B,C,D, M, P, Q, CDR2H, CDR2L, CDR3H, CDR3L, 34B, 34C,34D,34E and 34F peptides adjusted to pH 7 and pH unadjusted (^~ pH3.8-4.3) was tested.

For data set [3], the system named is anti-CD34 antibody, 9069. The data set can be described thus: KG1a cell FACS assay: release by peptides of 9069 antibody bound to cells. In kind it is cell-based, mouse. On the procedure:
These experiments were performed following a similar procedure to the binding experiments except that the anti-CD34 antibody, 9069, was incubated with KG1a cells first, followed by addition of peptide. The experimental outline is schematically shown below:
Anti-CD34 antibody, 9069 (0.1 microgram) was incubated with KG1a cells (10^6) for 30 minutes at room temperature (about 22° C.). Molar excesses of 10^5 to 10^6 times the amount of peptide to antibody were tested for the ability to displace the prebound antibody. Peptides were incubated with the antibody-cell complexes for 30 minutes at room temperature (approximately 22° C.). Remaining bound antibody was detected using the FITC-goat anti-mouse IgG reagent described in Example 3.
Analysis of the variant peptide, 9069Q2, was done in parallel with the 9069N peptide. This analysis provides quality control information on reagents including the antibody, 9069, and the cells, KG1a. FACScan assays included a negative control of KG1a cells alone and positive control samples of KG1a cells with the 9069 antibody bound and detected with a secondary antibody, goat-anti-mouse IgG-FITC.

Data set [4] relates to 9069 antibody. The data set can be described thus: Stem cell selection with 9069 antibody and sheep-anti-mouse beads, release by peptide or chymopapain. The data set is classed as cell-based. Particulars: chymopapain release.
For data set [5], the system named is positively selected CD34+ cells. The data set can be described thus: Culture of positively selected CD34+ cells with cytokines for 12 days. The conditions noted are these: released cells of first experiment. In kind it is cell-based, human. The procedure: The purity of the positively selected CD34+ cells was greater than 90% for both the chymopapain and peptide released cells. In a first experiment, the peptide release method yielded 14×10^6 cells, while the chymopapain release method yielded 20×10^6 cells. In a second experiment, the peptide release method yielded 19×10^6 cells, while the chymopapain release method yielded 22×10^6 cells. The positively selected CD34+ cells from the first experiment were grown in culture with cytokines for 12 days.

Data set [6] deals with CD34+ cells. The data set can be described thus: CD34+ cell isolation from mobilized peripheral blood on automated cell separation apparatus. In kind it is cell-based, human. Particulars: 25 mg of peptide 9069N or chymopapain control. The procedure: CD34+ cells were also isolated from human mobilized peripheral blood using the automated cell separation apparatus of co-pending U.S. patent application Ser. No. 08/212,479, and the method essentially as described in co-pending U.S. patent application Ser. No. 08/212,616. Both Ser. No. 08/212,479 and Ser. No. 08/212,616 are herein expressly incorporated by reference. Chymopapain was used as the control releasing agent, and 25 mg of the peptide 9069N (Table 11) was used as the test releasing agent.

A short description of data set [7]: Solubilization of peptides in DPBS plus 1% HSA. The data set is classed as physicochemical. The conditions noted are these: Dulbecco's phosphate buffered saline (DPBS) plus 1% HSA. The procedure: 9079A-G peptides were solubilized in Dulbecco's phosphate buffered saline (DPBS) plus 1% HSA. The 9079A-G peptides were tested in the FACScan assay using 10 6 KG1a cells bound with 0.05 ug of the 9079 antibody.

Where [8] appears, read: Table 7, mobilized peripheral blood (5.86 % CD34).
[9] abbreviates: Table 8, mobilized peripheral blood (1.05 % CD34).
Setting [10] is: Table 9, bone marrow sample (3.66 % CD34).
The mark [11] stands for this setting: Table 10, mobilized peripheral blood (0.68 % CD34).

The text below walks through data of patent US5968753A, “Positive and positive/negative cell selection mediated by peptide release” (Nexell Therapeutics, Inc., priority 1995, dated 1999).

Ends that are not written are not given here.

As for `[Cl-].[Cl-].[Mg+2]` [magnesium chlordie, magnesium chloride], the “enhancement of peptide mediated release of CD34+ selected cells” value in data set [1] is recorded as “Less dramatic results”.
On the same count and under the same terms, for `CC(=O)O` [sodium acetate] the value was “significant activity as an enhancement reagent”.
For the molecule A C K W C R (ACKWCR) [561M], the “release of 561 antibody prebound to KG1a or tHL60 cells” value in data set [2] (KG1a or tHL60 cells) is “able to release 561 antibody prebound to KG1a or tHL60 cells”. Further, the figures for the “functional release activity” value in data set [2] (pH 7) and in data set [2] (pH unadjusted (around pH 3.8-4.3)) were “none of these peptides showed release activity” and “showed functional release activity”, respectively. The results for the “release activity” value in data set [2] (low pH (~4)) and in data set [2] (pH 6 or pH 7) were “showed significant release activity” and “did not show release activity”, respectively.
In turn, ADGA-NGGYFP-GAKD [9069H'] came in with a Competition % in data set [3] (Table 11, 9069 prebound to KG1a cells) of 75%. In addition, in data set [3] (Table 13, yes/no), the “release activity” value is “yes”.
Take Chymopapain: the “% CD34 CELLS Negative Fraction” value in data set [4] (setting [8]) was 2.5%; in data set [4] (setting [9]) it was 0.16%; in data set [4] (setting [10]), 0.34%; in data set [4] (setting [11]), 0.12%. Also, the “% CD34 CELLS Positive Fraction” value is reported as 94% in data set [4] (setting [8]), 90.1% in data set [4] (setting [9]), 92.1% in data set [4] (setting [10]) and 79.73% in data set [4] (setting [11]). Moreover, the “% Capture” value in data set [4] (setting [8]) was determined as 62%; in data set [4] (setting [9]) it was 86.9%; in data set [4] (setting [10]), 91.8%; in data set [4] (setting [11]), 86.7%. Also, the “% Yield” value in data set [4] (setting [8]) is 65.9%; in data set [4] (setting [9]) it was 73.4%; in data set [4] (setting [10]) it was 79.9%; in data set [4] (setting [11]) it was 68%. Further, the “expansion in cell number” value in data set [5] turned out to be 68 fold. Also, the “cells yielded by release method” value in data set [6] (first experiment) is reported as 20×10^6 cells; in data set [6] (second experiment) it was 22×10^6 cells. For the same molecule, the “purity of the positively selected CD34+ cells” value in data set [6] (mobilized peripheral blood) was “greater than 90%”.
With IQEFGVKD [9079F, IQEFGV-KD], the “solubility” value in data set [7] is listed as “solubilized”.
The same measure, in the same setting: for KDVYSLWPKD [9079H, KD-VYSLWP-KD] the value was “solubilized”; for NLQGEFKD [9079D, NLQGEF-KD], “solubilized”; for PGSPLGKD [9079A, PGSPLG-KD], “solubilized”.
The same measure, in the same setting: for QYTQPKD [9079C, QYTQPK-D] the value was “solubilized”; for RSFYYRD [9079E, RSFYYR-D], “insoluble”.
YSRLGFKD [9079B, YSRLGF-KD]: in data set [7], the “solubility” value was “solubilized”.
